The values below come from ChEMBL document CHEMBL1137331 (J Med Chem, 2006).

Each structure is given as a SMILES string. A value given as a limit tells only on which side of the number the result lay.

Broadly, the IC50 is the concentration at which inhibition is half-maximal. The inhibition is how much of the control response was suppressed. The low end stands for a weak effect, the high end for a strong effect. As a reminder, the Ki is a measure of affinity in units of concentration, obtained from inhibition or displacement. A low value points to a stronger hold on the target. The term inhibition in vivo denotes the relative decrease from the control value, in per cent. A high value points to a strong effect. The ED50 is the midpoint of the dose-response relation. A low value points to an effect at a small dose.

For one data set, the system named is T-cell. As to the kind of experiment: Inhibition of anti CD3/anti CD28-induced T cell proliferation. The class given is functional, cell-based. The note with it: Homo sapiens.
For data set [1], the target named is Tyrosine-protein kinase Lck (Homo sapiens, UniProt P06239).
Chain of Tyrosine-protein kinase Lck (P06239 whole entry): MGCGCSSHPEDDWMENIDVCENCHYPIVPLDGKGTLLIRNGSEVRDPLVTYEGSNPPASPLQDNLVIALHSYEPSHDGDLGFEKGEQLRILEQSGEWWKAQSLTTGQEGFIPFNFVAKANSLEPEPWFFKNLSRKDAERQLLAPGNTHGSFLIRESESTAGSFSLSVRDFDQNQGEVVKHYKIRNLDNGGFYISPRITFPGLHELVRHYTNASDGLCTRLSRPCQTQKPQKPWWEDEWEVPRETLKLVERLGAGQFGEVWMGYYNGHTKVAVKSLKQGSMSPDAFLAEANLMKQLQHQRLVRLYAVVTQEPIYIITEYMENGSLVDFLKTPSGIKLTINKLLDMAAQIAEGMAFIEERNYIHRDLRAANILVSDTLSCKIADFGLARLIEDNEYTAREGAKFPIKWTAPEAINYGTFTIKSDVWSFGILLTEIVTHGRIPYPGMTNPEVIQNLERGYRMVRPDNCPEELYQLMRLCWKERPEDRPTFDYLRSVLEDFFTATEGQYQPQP
Description: Inhibition of human Lck in presence of ATP
For data set [2], the target named is Proto-oncogene tyrosine-protein kinase LCK (Mus musculus, UniProt P06240).
Chain of Proto-oncogene tyrosine-protein kinase LCK (P06240 whole entry): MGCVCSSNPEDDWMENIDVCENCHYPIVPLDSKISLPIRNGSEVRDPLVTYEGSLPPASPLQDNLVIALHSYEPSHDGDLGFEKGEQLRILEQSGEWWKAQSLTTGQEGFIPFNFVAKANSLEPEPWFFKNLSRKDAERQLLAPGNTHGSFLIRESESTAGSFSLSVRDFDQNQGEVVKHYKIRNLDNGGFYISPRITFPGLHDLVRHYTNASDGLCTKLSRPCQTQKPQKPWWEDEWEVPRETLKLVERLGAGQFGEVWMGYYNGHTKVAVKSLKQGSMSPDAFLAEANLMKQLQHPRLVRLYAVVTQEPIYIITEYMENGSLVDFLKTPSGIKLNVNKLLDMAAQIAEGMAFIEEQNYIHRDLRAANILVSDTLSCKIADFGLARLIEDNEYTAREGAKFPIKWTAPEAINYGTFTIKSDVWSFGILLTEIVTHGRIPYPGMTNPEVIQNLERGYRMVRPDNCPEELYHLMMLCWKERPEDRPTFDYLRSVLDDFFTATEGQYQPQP
Description: Inhibition of murine Lck in presence of ATP
The target of data set [3] is Proto-oncogene tyrosine-protein kinase LCK (Mus musculus) (UniProt P06240). The following applies: 50 uM.
Chain of Proto-oncogene tyrosine-protein kinase LCK (Mus musculus) (P06240 2-509 limits assumed): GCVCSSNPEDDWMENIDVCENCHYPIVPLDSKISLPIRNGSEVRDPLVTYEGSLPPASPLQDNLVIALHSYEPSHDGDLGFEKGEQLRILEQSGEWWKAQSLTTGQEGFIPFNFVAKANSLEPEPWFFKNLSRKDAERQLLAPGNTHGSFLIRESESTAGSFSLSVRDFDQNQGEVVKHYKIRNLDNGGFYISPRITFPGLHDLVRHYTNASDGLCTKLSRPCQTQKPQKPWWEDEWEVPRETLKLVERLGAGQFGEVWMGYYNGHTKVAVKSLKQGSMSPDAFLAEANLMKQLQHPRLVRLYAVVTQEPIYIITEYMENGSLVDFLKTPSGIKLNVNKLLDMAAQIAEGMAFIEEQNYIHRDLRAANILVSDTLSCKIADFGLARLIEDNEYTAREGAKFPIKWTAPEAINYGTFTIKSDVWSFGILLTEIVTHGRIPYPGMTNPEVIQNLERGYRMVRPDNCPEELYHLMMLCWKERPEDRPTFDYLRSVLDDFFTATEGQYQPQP
Description: Inhibition of murine Lck at 50 uM
The next data set concerns Rattus norvegicus. As to the kind of experiment: Volume of distribution in rat at 10 mg/kg, iv and po. The class given is ADME, organism-based. The arrangement: dose 10 mg/kg, route oral. The note with it: in vivo.
Another data set relates to PBMC. In words: Inhibition of LPS-induced TNFalpha production in human PBMC. The class given is functional, cell-based.
The target of data set [4] is Tyrosine-protein kinase Lyn (Homo sapiens, UniProt P07948). As to the kind of experiment: Inhibition of Lyn.
Data set [5] concerns the target Fibroblast growth factor receptor 1 (Homo sapiens, UniProt P11362). As to the kind of experiment: Inhibition of FGFR1.
Data set [6] deals with Tyrosine-protein kinase Yes (Homo sapiens, UniProt P07947). As to the kind of experiment: Inhibition of Yes.
Data set [7] deals with Receptor tyrosine-protein kinase erbB-2 (Homo sapiens, UniProt P04626). In words: Inhibition of Her2.
Chain of Receptor tyrosine-protein kinase erbB-2 (P04626 whole entry): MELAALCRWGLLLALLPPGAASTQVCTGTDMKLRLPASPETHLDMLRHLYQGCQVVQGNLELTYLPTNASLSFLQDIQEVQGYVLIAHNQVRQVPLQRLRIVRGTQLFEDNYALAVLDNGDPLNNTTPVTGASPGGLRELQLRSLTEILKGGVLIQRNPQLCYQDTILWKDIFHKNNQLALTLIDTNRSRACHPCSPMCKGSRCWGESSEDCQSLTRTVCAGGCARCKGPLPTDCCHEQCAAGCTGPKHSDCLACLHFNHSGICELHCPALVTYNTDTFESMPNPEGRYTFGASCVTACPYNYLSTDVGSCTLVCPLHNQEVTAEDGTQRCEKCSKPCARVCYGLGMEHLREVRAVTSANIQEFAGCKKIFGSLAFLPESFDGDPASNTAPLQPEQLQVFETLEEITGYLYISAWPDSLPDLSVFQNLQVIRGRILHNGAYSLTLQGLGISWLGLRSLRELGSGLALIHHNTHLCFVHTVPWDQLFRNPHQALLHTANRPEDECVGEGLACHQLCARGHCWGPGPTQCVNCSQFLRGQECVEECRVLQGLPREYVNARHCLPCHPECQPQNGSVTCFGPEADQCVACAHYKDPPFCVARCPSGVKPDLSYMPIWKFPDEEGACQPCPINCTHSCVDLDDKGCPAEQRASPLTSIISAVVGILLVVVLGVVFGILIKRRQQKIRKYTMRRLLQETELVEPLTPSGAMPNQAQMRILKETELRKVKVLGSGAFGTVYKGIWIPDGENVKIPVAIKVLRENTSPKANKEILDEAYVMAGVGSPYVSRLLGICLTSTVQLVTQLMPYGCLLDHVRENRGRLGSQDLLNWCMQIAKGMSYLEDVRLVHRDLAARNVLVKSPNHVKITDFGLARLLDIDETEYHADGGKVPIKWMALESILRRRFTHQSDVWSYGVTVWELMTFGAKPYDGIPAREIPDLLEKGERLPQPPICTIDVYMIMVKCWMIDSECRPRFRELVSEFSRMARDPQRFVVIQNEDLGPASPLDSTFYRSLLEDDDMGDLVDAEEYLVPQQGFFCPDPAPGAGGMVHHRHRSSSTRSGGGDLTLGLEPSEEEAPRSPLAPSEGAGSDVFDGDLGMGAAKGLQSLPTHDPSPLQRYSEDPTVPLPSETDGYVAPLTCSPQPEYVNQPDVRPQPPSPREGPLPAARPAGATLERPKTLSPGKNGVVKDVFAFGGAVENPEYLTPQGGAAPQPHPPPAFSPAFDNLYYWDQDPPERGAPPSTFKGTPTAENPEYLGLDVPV
Data set [8] deals with Tyrosine-protein kinase Fgr (Homo sapiens, UniProt P09769). In words: Inhibition of Fgr.
Chain of Tyrosine-protein kinase Fgr (P09769 whole entry): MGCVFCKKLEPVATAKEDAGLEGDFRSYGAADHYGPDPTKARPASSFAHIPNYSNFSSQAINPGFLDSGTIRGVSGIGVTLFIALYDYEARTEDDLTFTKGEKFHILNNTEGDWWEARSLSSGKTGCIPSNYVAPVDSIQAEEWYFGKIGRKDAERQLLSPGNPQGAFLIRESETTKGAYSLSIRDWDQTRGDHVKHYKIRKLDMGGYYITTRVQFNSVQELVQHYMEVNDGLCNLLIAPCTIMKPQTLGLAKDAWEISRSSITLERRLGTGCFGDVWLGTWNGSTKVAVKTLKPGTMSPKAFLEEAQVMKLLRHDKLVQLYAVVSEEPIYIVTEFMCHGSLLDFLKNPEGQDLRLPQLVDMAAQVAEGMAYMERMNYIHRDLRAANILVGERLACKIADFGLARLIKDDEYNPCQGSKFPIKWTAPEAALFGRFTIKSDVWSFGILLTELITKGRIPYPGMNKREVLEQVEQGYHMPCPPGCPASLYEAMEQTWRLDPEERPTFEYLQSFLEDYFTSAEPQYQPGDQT
For data set [9], the target named is Proto-oncogene tyrosine-protein kinase Src (Homo sapiens, UniProt P12931). In words: Inhibition of Src in presence of ATP.
Chain of Proto-oncogene tyrosine-protein kinase Src (P12931 2-536 limits assumed): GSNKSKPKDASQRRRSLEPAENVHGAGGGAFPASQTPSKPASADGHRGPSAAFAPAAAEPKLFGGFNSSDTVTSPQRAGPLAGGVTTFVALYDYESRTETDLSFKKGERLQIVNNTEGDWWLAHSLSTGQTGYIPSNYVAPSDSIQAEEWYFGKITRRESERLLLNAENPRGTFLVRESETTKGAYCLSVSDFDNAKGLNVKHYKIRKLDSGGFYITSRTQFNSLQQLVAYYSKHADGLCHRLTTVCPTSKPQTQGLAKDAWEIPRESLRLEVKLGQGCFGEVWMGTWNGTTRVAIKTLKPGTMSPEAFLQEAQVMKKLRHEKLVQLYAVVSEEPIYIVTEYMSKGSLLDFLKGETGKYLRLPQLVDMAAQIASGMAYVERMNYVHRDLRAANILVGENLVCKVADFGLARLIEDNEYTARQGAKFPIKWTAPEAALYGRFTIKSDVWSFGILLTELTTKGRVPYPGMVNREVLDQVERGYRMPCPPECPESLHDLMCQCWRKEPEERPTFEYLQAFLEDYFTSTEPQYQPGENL
Data set [10] concerns Mus musculus. In words: Inhibition of LPS-induced TNFalpha production in C57BL/6 mouse at 60 mg/kg, po. The note with it: C57BL/6, po.
The test system of data set [11] is Mus musculus. In words: Inhibition of anti CD3/anti CD28-induced IL2 production in po dosed BALB/c mouse. The class given is functional.

Chain of Fibroblast growth factor receptor 1 (P11362 whole entry): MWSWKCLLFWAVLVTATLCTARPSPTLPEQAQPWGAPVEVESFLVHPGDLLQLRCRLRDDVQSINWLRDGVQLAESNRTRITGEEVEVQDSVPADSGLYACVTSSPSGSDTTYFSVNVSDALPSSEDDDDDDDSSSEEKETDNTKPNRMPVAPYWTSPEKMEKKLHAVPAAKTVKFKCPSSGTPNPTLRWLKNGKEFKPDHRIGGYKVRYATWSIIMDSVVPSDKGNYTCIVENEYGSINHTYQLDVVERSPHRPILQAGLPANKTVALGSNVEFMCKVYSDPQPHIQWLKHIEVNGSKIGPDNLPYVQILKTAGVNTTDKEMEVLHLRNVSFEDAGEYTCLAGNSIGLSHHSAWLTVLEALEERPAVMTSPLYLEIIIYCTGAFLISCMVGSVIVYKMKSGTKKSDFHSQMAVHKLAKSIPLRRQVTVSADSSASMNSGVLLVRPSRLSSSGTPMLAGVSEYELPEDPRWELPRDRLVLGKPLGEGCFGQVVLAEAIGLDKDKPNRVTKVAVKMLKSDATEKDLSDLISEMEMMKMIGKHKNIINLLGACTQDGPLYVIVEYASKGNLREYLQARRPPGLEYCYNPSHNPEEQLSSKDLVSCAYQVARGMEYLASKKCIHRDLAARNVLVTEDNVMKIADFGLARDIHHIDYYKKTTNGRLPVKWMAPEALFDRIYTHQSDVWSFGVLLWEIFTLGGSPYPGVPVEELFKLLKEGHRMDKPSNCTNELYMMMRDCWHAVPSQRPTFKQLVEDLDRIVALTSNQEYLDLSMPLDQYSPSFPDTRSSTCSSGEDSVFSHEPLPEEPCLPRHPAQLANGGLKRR

On to `Cc1nc(Nc2ncc(C(=O)Nc3c(C)cccc3Cl)s2)cc(N2CCN(CCO)CC2)n1` [DASATINIB], for which it took 3 nM to reach half-maximal inhibition with T-cell (IC50).
Regarding `Cc1cc(C)c(NC(=O)c2sc(NC(=O)C(C)(C)C)nc2C)c(C)c1`, the IC50 in data set [1] was determined as 12100 nM.
With `Cc1cc(C)c(NC(=O)c2sc(NC(=O)c3ccsc3)nc2C)c(C)c1`, the half-maximal inhibitory concentration (IC50) in data set [1] stood at 180 nM.
In turn, `Cc1cc(C)c(NC(=O)c2sc(NC(=O)NC(C)(C)C)nc2C)c(C)c1` had an IC50 in [1] of 1300 nM.
In the case of `Cc1cc(C)nc(Nc2ncc(C(=O)Nc3c(C)cccc3Cl)s2)c1`, the IC50 in the data set with T-cell is 140 nM; in data set [1] it was 4 nM.
On to `Cc1nc(Nc2ncc(C(=O)Nc3c(C)cccc3Cl)s2)cc(N2CCC(CO)CC2)n1`, for which the values for the IC50 (in the data set on T-cell; in data set [1]) were 4 nM and 0.7 nM, respectively.
For `Cc1ccc(NC(=O)c2sc(NC(=O)OC(C)(C)C)nc2C)c(C)c1`, it took 27400 nM to reach half-maximal inhibition in [2] (IC50).
On to `Cc1nc(Nc2ncc(C(=O)Nc3c(C)cccc3Cl)s2)cc(N2CCOCC2)n1`, for which the figures for the half-inhibitory concentration (IC50) (in the data set with T-cell; in [1]) were 5 nM and 1.3 nM, respectively.
The matching figures for `Cc1cc(C)c(NC(=O)c2cnc(Nc3cc(C)nc(C)n3)s2)c(C)c1`: 140 nM and 3 nM.
The matching figures for `Cc1cccc(Cl)c1NC(=O)c1cnc(Nc2cccnc2)s1`: 870 nM and 6.7 nM.
As to `CC(=O)Nc1nc(C)c(C(=O)Nc2c(C)cc(C)cc2C)s1`, the IC50 in data set [2] is 510 nM; in data set [1], 480 nM.
For `Cc1cccc(Cl)c1NC(=O)c1cnc(Nc2cc(N3CCOCC3)ncn2)s1`, the half-maximal inhibitory concentration (IC50) came out at 3 nM in the data set with T-cell and 0.5 nM in data set [1].
For `Cc1cnc(Nc2ncc(C(=O)Nc3c(C)cccc3Cl)s2)c(C)n1`, in that order: 570 nM and 6.3 nM.
With `Cc1cccc(Cl)c1NC(=O)c1sc(NC(=O)c2cccs2)nc1C`, in data set [1], the IC50 came out at 130 nM.
In the case of `Cc1cccc(Cl)c1NC(=O)c1cnc(Nc2cccc(NCCCN3CCOCC3)n2)s1`, the results for the IC50 (with T-cell; in data set [1]) were 8 nM and 0.5 nM, respectively.
Compound `Cc1cc(C)c(NC(=O)c2sc(NC(=O)c3ccoc3)nc2C)c(C)c1` returned an IC50 in data set [1] of 1200 nM.
As to `Cc1cccc(Cl)c1NC(=O)c1cnc(Nc2cccc(NCCCn3ccnc3)n2)s1`, the values for the IC50 (with T-cell; in [1]) were 2 nM and less than 0.5 nM, respectively.
Turning to `Cc1cccc(Cl)c1NC(=O)c1cnc(Nc2cccc(NCCO)n2)s1`, the IC50 with T-cell is 75 nM; in data set [1], less than 0.2 nM.
On to `Cc1cccc(Cl)c1NC(=O)c1cnc(NC(=O)c2ccsc2)s1`, for which the IC50 is more than 2000 nM in the data set with T-cell and 17 nM in data set [1].
As to `Cc1cccc(Cl)c1NC(=O)c1cnc(NC(=O)C2CC2)s1`, in the data set on T-cell, half-maximal inhibition (IC50) was put at 884 nM.
Consider `Cc1cccc(Nc2ncc(C(=O)Nc3c(C)cccc3Cl)s2)n1`, for which the results for the concentration for half-maximal inhibition (IC50) (in the data set with T-cell; in data set [1]) were 110 nM and 0.6 nM, respectively.
Compound `Cc1cc(C)c(NC(=O)c2sc(NC(=O)OCc3ccccc3)nc2C)c(C)c1` returned an IC50 in [2] of 33300 nM.
As to `Cc1cc(C)c(NC(=O)c2sc(NC(=O)Nc3ccccc3)nc2C)c(C)c1`, the figures for the IC50 in data set [2] and in data set [1] were 90 nM and 160 nM, respectively.
On to `Cc1cc(C)c(NC(=O)c2sc(NC(=O)NCc3ccccc3)nc2C)c(C)c1`, for which the 50% inhibitory concentration (IC50) was 100 nM in data set [2] and 130 nM in [1].
With `Cc1cc(C)nc(Nc2ncc(C(=O)Nc3c(C)cccc3Cl)s2)n1`, the IC50 in data set [1] is 50 nM.
On the same count and under the same terms, to `Cc1cccc(Cl)c1NC(=O)c1cnc(NC(=O)C2CCCC2)s1` belongs 1340 nM.
For `Cc1cc(C)c(NC(=O)c2cnc(Nc3ccccn3)s2)c(C)c1`, the IC50 in the data set on T-cell amounted to 510 nM; in [1] it was 5 nM.
The matching figures for `Cc1cccc(C)c1NC(=O)c1cnc(Nc2ccccn2)s1`: 180 nM and 1.2 nM.
For `Cc1cccc(C)c1NC(=O)c1cnc(Nc2cccnn2)s1`, in that order: 350 nM and 0.3 nM.
Take `Cc1nc(NC(=O)OC(C)(C)C)sc1C(=O)Nc1ccccc1`: the inhibition in data set [3] stood at 28%.
Regarding `Cc1cccc(Cl)c1NC(=O)c1sc(NC(=O)c2ccsc2)nc1C`, the IC50 in data set [1] was found to be 390 nM.
In the case of `Cc1nc(NCCCN2CCOCC2)cc(Nc2ncc(C(=O)Nc3c(C)cccc3Cl)s2)n1`, the IC50 with T-cell stood at 7 nM; in data set [1], 0.7 nM.
In the case of `Cc1cccc(Cl)c1NC(=O)c1cnc(NC(=O)c2cccs2)s1`, the IC50 in data set [1] turned out to be 2230 nM.
Turning to `Cc1cc(C)c(NC(=O)c2sc(N)nc2C)c(C)c1`, in the data set on T-cell, the IC50 is more than 10000 nM.
Turning to `Cc1nc(NCCO)cc(Nc2ncc(C(=O)Nc3c(C)cccc3Cl)s2)n1`, the results for the IC50 (in the data set with T-cell; in [1]) were 23 nM and 0.2 nM, respectively.
For `Cc1cccc(Cl)c1NC(=O)c1cnc(Nc2ccccn2)s1`, in that order: 140 nM and 1.2 nM.
The matching figures for `Cc1cccc(Cl)c1NC(=O)c1cnc(Nc2ccncc2)s1`: 270 nM and 9.4 nM.
For `Cc1cc(C)c(NC(=O)c2cnc(Nc3cnccn3)s2)c(C)c1`, in that order: 500 nM and 4.9 nM.
`Cc1ccnc(Nc2ncc(C(=O)Nc3c(C)cccc3Cl)s2)c1`: the IC50 in the data set with T-cell came out at 80 nM; in data set [1] it was 0.5 nM.
The matching figures for `Cc1cccc(Cl)c1NC(=O)c1cnc(Nc2cccnn2)s1`: 350 nM and 4 nM.
As to `Cc1cc(Nc2ncc(C(=O)Nc3c(C)cccc3Cl)s2)nc(C)n1`, in [2], the inhibitory constant (Ki) stood at 0.13 nM. For the same compound, in the data set on Rattus norvegicus, the Vss is 12 L/kg. Further, the IC50 in the data set with PBMC was 670 nM; with T-cell, 80 nM; in data set [4], 4 nM; in [5], more than 10000 nM; in data set [6], 2 nM; in data set [7], 500 nM. Moreover, the IC50 in data set [8] is 0.8 nM; in [1] it was 1 nM; in data set [9] it was less than 2 nM. This compound registered an inhibition in vivo at 60 mg/kg in the data set on Mus musculus [10] of 90%. Moreover, the ED50 in the data set on Mus musculus [11] came out at 5 mg/kg.
